# Laboratory results from patent US8501166B2, “Pyrimidinyl indole compounds” (Hutchison Medipharma Limited, priority 2010, dated 2013).
# System: OVA-induced airway inflammation
# Test: OVA-induced pulmonary inflammation in Brown-Norway rats
# Format: in vivo
# Conditions: Rattus norvegicus, 480 h; BN rats, 0.3 to 30 mg/kg oral bid, day 20 and 21; read-out: ED50, increase of total cells and eosinophiles in BAL fluids
# Protocol: To evaluate the effects of IKKβ inhibitors on antigen-driven airway inflammation in vivo, the compound is also tested in OVA-induced pulmonary inflammation model in rats essentially as described in a method reported in the literature (Yamamoto N, Takeshita K, Shichijo M, Kokubo T, Sato M, Nakashima K, Ishimori M, Nagai H, Li Y F, Yura T, Bacon K B. J Pharm. Exp Ther. 2003; 306(3):1174-81). Briefly, male BN rats weighing from 240 to 260 g are sensitized by intraperitoneal injection of 1 mL of saline containing 1 mg of OVA and 13 mg of aluminum hydroxide on days 1, 2 and 3. Rats serving as normal control received 1 mL of saline instead of OVA. The test compound at doses of 0.3, 1, 3 and 30 mg/kg (bid) is orally administered to rats on day 20 and 21. On day 21 rats are challenged with 1% OVA for 15 minutes with Buxco Mass Dosing System. On day 22, rats are anesthetized with 1% Pentobarbital Sodium. The thoracic and abdominal cavities are opened. Plasma is collected from centrifuged specimens. The trachea is dissected and transected. Through the insertion of an 18-gauge catheter into the trachea, the lungs are lavaged with a total of 15 mL of sterile PBS, and then placed into a specimen container. Cell-free BAL supernatants are obtained by centrifugation of BAL fluids. All serum and BAL supernatants are stored at −80° C. until use. […]
smiles,measurement,value
"Cl.O=C(NC1CC1)c1cccc2[nH]c(-c3nc(N[C@@H]4CCC[C@H]4O)ncc3Cl)cc12 [Example 2, 2-{5-Chloro-2-[(1R,2R)-2-hydroxycyclopentylamino]pyrimidin-4-yl}-N-cyclopropyl-1H-indole-4-carboxamide hydrochloride]",ED50,0.49 mg/kg
